The target in assay [1] is Intestinal-type alkaline phosphatase (Homo sapiens, UniProt P09923). As to the kind of experiment: Dose Response confirmation of uHTS hits from a small molecule inhibitors of human intestinal alkaline phosphatase via a luminescent assay. [Related pubchem assays (depositor defined):AID2544, AID2574]. It counts as functional.
Assay [2] addresses T1, Mannose-6-phosphate isomerase (Homo sapiens, UniProt P34949).
T1 sequence (P34949 whole entry): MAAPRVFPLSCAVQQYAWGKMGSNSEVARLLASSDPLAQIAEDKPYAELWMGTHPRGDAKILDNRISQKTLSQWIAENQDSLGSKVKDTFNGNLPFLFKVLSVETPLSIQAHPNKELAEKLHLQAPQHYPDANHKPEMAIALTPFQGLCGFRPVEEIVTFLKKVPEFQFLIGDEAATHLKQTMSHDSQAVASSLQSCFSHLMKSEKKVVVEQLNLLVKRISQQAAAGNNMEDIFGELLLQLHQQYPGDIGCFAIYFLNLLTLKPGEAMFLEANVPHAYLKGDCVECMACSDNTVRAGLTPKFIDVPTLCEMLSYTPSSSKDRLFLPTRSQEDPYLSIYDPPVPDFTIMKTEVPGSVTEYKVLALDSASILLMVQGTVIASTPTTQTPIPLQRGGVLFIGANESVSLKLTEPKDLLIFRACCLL
Kind of assay: MPI enzyme activity inhibition – biochemical, fluorescence intensity, coupled assay, primary screen (AID 1209).

In assay [3] the target is T1, Mannose-6-phosphate isomerase. As to the kind of experiment: MPI inhibition at elevated mannose 6-phosphate – biochemical, fluorescence intensity, high mannose 6-phosphate, primary screen (AID 1220).
Assay [4] concerns the target T2, Apoptotic protease-activating factor 1 (Homo sapiens, UniProt O14727).
T2 sequence (O14727 whole entry): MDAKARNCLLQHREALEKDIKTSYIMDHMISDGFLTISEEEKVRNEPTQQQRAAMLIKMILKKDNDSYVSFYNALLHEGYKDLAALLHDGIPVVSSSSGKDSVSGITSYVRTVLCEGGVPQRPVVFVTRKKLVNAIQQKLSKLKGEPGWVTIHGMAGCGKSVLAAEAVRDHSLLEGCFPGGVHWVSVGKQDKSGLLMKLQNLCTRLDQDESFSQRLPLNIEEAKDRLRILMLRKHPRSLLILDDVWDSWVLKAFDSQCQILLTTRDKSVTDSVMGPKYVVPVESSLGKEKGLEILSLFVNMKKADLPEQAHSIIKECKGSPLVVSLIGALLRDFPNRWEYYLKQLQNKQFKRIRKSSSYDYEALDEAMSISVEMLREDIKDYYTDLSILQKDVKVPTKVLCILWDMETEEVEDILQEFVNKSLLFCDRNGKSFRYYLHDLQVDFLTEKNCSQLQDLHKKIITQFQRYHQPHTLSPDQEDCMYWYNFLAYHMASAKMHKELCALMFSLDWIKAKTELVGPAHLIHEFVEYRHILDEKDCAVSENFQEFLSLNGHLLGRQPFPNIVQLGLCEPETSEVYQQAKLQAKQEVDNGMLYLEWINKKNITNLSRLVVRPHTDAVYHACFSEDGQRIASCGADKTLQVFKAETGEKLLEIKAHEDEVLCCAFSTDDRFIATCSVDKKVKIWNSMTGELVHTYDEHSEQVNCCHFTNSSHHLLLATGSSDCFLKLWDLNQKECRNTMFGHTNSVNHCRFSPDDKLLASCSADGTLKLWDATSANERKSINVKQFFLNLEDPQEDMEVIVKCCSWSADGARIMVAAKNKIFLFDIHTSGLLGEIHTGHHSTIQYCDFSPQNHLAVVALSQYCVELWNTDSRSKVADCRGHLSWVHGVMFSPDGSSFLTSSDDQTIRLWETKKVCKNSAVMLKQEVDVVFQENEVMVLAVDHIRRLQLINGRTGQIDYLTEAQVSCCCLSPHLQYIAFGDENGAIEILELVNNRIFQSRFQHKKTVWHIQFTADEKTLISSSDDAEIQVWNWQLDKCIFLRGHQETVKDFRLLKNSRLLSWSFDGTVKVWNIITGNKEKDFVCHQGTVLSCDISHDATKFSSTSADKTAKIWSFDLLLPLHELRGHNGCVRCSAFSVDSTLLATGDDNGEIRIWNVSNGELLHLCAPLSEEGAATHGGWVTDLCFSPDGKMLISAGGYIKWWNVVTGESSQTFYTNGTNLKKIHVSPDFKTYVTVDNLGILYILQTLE
The format is functional.

The target in another assay is T3, Bcl-2-like protein 10 (Homo sapiens, UniProt Q9HD36).
T3 sequence (Q9HD36 whole entry): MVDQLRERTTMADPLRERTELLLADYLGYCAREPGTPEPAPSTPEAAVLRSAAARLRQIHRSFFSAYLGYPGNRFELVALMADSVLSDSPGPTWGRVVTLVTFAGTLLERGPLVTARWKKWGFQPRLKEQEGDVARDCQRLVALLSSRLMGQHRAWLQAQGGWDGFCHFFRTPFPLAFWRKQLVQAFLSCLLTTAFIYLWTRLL
Kind of assay: Bcl-B/TR3 peptide binding disruption – biochemical, fluorescence polarization, FITC-TR3 peptide, selectivity assay for Bfl-1 inhibitor project, primary screen (AID 748).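 Note: fluorescence polarization from a fluorescein-labelled TR3 peptide binding purified Bcl-B.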

In another assay the target is T4, Hexokinase HKDC1 (Homo sapiens, UniProt Q2TB90).
T4 sequence (Q2TB90 whole entry): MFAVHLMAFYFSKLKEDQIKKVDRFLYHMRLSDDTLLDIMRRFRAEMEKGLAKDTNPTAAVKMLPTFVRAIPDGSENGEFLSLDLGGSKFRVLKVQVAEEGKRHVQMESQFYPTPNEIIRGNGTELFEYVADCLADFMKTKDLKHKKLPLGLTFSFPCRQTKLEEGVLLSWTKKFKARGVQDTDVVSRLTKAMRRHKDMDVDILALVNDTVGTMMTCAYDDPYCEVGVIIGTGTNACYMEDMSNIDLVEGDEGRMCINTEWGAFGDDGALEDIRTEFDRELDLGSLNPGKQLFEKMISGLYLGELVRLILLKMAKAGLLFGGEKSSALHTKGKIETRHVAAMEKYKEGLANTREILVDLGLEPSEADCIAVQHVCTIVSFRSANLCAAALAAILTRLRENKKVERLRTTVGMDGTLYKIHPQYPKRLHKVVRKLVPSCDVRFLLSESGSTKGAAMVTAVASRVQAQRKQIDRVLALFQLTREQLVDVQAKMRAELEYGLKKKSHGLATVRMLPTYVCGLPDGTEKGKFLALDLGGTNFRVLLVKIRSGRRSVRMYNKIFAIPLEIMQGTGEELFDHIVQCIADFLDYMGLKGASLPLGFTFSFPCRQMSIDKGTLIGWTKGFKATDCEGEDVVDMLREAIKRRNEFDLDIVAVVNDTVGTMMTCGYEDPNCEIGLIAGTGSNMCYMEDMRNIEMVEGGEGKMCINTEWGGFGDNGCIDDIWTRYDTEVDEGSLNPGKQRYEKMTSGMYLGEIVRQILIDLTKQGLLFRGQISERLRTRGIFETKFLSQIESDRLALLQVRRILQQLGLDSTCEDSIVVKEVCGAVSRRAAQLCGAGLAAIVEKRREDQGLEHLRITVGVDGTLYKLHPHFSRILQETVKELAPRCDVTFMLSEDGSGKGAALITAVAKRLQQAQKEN
As to the kind of experiment: inhibition of HKDC1 glucose phosphorylation – biochemical, W721R variant, dose response (AID 504729). It counts as functional.

A further assay concerns the target T5, Estrogen receptor (Homo sapiens, UniProt P03372).
T5 sequence (P03372 whole entry): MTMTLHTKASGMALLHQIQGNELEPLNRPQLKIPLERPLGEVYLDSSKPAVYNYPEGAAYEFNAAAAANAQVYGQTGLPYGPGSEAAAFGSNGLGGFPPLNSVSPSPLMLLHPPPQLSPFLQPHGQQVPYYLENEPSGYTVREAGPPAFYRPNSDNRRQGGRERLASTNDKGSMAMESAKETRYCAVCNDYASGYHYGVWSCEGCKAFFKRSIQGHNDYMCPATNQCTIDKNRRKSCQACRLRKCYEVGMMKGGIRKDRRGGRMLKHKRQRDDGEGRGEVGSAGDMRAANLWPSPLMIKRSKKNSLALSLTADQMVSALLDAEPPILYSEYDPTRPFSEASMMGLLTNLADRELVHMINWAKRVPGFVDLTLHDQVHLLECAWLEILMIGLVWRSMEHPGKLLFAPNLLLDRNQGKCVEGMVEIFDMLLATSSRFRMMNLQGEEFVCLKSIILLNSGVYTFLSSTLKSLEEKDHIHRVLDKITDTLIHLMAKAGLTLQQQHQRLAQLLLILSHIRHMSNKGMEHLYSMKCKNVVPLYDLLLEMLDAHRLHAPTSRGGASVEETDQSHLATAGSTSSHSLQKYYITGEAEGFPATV

For assay [5], the target named is Glyceraldehyde-3-phosphate dehydrogenase (Homo sapiens, UniProt P04406).
Assay [6] can be described thus: Trypanosoma cruzi growth suppression in host cells – NIH3T3 host cells, beta-gal luminescence, confirmation (AID 2044).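 Note: intracellular parasites grown in NIH/3T3 mouse fibroblasts as host cells; luminescent beta-galactosidase reporter signal from transgenic T. cruzi replicating inside host cells; inhibitors lower the luminescence signal.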 It counts as functional, cell-based.
The nature of assay [7]: NIH3T3 cell viability loss – ATP luminescence, mouse fibroblasts, counter-screen, dose response (AID 2010).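 Note: cells exposed to compound for about 90 hours before reading.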 It counts as functional, cell-based.
The target in assay [8] is T6, Voltage-gated N-type calcium channel alpha-1B subunit/Amyloid beta A4 precursor protein-binding family A member 1 (Homo sapiens, UniProt Q00975+Q02410). The format is protein assay.
Assay [9] deals with T6, Voltage-gated N-type calcium channel alpha-1B subunit/Amyloid beta A4 precursor protein-binding family A member 1. The format is protein assay. This is another data set of the same source.
For assay [10], the target named is T7, Alkaline phosphatase, tissue-nonspecific isozyme (Homo sapiens, UniProt P05186).
T7 sequence (P05186 whole entry): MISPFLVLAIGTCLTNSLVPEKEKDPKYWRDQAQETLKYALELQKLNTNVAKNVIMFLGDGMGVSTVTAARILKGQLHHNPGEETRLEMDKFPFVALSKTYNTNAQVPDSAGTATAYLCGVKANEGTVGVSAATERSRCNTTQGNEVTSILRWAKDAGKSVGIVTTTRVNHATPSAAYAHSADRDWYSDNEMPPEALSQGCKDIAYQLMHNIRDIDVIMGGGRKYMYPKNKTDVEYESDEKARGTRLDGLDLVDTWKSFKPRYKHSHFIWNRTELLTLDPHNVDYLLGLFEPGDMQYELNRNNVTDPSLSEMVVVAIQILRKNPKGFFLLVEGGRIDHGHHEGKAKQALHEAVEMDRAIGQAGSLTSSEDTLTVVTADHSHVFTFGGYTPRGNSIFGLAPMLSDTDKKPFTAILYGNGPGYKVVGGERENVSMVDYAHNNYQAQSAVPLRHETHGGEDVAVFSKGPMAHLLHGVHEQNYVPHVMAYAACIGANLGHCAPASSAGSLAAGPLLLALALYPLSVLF
As to the kind of experiment: potency against alkaline phosphatase TNAP – biochemical, luminescent, dose response, SAR follow-up (AID 1056).

Assay [11] addresses Induced myeloid leukemia cell differentiation protein Mcl-1 (Homo sapiens, UniProt Q07820). It counts as functional.
The target of assay [12] is G-protein coupled receptor 55 (Homo sapiens, UniProt Q9Y2T6). As to the kind of experiment: selective activators of receptor GPR55 – imaging, U2OS cells, beta-arrestin-GFP redistribution, primary screen (AID 1961). It counts as functional.
A further assay addresses Estrogen receptor beta (Homo sapiens, UniProt Q92731).

SMILES strings stand for the structures. The source made the active and inactive calls.

T6 sequence (Q00975 whole entry): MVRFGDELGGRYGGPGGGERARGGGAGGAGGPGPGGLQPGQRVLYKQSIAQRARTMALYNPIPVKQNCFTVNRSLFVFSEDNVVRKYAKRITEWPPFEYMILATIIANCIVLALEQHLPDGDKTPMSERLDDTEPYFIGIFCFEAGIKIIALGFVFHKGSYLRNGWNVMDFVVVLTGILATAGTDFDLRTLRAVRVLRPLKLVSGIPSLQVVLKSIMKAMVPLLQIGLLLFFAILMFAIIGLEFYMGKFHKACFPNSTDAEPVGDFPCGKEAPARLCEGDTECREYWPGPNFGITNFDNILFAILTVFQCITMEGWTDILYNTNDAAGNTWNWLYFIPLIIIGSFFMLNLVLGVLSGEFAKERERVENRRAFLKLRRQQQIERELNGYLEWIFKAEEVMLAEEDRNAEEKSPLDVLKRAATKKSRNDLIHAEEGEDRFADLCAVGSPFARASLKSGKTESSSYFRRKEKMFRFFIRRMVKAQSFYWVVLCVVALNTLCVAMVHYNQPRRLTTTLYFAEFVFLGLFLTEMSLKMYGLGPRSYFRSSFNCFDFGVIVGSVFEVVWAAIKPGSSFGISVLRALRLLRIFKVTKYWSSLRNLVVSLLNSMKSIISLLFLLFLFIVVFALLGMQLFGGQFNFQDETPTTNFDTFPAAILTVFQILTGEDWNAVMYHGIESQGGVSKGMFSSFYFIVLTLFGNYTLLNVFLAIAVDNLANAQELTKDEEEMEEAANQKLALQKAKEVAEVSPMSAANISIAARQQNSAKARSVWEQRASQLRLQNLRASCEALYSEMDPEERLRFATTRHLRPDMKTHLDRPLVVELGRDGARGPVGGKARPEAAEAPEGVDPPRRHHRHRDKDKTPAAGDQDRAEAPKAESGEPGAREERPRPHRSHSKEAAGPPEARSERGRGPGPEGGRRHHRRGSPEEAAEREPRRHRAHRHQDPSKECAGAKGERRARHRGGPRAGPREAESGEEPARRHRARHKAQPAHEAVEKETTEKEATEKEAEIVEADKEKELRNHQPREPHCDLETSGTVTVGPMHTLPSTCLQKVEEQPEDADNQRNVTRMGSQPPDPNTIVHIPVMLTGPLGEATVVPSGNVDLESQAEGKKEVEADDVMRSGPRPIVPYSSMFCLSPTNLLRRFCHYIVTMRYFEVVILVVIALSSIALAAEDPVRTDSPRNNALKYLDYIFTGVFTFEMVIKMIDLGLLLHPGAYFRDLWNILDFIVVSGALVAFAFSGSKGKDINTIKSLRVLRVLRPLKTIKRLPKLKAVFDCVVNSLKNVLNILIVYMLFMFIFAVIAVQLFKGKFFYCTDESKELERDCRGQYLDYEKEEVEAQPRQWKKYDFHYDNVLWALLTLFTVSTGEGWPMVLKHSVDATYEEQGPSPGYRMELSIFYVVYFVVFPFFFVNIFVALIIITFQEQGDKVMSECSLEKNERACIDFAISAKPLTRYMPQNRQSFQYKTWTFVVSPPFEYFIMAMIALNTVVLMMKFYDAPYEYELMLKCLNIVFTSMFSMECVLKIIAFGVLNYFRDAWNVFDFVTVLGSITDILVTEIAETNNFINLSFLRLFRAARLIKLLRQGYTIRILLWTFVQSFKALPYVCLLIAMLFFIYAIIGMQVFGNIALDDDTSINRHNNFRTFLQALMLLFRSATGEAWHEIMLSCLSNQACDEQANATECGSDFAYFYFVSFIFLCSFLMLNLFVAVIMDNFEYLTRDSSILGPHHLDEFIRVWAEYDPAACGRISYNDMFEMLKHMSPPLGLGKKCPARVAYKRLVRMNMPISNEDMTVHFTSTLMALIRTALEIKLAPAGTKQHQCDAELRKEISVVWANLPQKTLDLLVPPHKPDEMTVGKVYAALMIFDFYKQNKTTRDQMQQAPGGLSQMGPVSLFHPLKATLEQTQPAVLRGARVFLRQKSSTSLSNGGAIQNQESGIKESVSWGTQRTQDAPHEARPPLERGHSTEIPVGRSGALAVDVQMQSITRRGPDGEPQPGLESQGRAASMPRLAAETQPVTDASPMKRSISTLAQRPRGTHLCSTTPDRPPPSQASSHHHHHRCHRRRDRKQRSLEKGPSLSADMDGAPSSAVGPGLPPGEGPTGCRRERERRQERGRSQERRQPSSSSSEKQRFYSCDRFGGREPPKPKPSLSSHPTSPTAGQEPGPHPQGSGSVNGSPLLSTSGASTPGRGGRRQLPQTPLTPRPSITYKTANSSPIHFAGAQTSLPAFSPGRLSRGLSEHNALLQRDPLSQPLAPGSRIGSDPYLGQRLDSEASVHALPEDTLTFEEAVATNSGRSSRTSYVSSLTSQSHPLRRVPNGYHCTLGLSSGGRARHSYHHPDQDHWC
T6 sequence (Q02410 whole entry): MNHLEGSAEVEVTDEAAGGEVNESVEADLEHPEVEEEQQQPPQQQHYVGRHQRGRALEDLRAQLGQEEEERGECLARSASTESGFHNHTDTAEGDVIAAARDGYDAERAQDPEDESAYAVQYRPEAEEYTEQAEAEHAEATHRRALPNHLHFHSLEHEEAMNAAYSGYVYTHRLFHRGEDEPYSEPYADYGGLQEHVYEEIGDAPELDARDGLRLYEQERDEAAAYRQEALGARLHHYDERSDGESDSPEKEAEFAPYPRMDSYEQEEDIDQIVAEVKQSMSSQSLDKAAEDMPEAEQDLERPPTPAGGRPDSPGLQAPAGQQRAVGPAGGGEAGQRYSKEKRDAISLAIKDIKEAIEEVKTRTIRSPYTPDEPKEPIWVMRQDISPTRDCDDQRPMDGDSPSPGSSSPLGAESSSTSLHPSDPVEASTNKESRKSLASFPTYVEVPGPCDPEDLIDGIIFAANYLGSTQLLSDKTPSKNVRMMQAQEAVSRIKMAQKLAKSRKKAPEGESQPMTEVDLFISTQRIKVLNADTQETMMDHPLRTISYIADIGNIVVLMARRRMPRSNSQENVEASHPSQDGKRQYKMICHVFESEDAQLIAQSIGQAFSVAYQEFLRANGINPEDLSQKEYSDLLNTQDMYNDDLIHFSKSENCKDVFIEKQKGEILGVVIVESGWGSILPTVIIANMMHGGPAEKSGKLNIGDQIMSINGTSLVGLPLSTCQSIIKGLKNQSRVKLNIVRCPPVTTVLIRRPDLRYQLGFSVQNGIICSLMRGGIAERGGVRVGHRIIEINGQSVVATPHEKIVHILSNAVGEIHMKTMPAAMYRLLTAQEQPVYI
Chain of Glyceraldehyde-3-phosphate dehydrogenase (P04406 whole entry): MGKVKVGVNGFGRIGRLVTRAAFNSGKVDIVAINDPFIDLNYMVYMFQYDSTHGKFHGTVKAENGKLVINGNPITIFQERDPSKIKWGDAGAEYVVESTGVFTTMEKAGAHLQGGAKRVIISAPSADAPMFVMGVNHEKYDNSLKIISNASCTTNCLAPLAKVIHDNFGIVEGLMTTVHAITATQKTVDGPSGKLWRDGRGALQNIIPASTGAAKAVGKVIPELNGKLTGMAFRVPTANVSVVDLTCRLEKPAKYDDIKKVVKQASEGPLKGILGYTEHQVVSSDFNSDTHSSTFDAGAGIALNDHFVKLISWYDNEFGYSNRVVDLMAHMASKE
Chain of Induced myeloid leukemia cell differentiation protein Mcl-1 (Q07820 whole entry): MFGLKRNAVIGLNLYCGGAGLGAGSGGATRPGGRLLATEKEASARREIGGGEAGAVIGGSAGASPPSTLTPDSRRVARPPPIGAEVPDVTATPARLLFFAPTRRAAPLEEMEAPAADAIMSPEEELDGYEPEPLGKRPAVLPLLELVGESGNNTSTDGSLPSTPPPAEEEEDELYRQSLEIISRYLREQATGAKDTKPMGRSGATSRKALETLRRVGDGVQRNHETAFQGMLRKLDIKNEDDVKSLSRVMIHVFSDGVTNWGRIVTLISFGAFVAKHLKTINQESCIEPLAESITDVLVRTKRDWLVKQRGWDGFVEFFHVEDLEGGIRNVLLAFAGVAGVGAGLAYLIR
Chain of G-protein coupled receptor 55 (Q9Y2T6 whole entry): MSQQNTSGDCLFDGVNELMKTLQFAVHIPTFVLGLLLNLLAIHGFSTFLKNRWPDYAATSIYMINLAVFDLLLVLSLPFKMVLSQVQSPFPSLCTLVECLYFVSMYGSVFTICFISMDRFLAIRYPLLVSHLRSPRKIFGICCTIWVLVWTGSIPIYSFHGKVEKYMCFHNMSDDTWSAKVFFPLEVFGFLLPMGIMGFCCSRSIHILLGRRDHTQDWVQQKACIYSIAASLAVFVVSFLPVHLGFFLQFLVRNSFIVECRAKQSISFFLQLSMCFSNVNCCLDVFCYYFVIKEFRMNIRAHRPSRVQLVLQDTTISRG
Chain of Estrogen receptor beta (Q92731 whole entry): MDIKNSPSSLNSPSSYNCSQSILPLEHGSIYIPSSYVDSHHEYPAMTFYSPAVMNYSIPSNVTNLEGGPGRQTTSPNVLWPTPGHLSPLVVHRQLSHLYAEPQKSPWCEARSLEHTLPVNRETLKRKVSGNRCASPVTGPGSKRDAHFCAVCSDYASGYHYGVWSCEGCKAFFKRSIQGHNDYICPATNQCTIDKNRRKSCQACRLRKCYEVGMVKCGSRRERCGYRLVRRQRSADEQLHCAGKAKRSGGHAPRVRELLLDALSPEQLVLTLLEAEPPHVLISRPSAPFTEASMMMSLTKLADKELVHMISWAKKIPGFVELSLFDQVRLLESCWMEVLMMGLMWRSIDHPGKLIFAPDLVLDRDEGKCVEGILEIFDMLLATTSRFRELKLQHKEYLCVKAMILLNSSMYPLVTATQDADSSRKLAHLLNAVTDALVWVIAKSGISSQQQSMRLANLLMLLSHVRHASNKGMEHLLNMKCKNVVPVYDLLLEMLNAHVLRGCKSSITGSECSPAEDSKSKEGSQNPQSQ

Take `O=C(CN1CCN(C(=O)N2CCCCC2)CC1)Nc1ccc(F)cc1`: the IC50 in [1] was > 100 µM (inactive).

As for `CCCCCn1c(NC(=O)c2ccco2)c(C(=O)OCC)c2nc3ccccc3nc21`, the IC50 in [2] is > 50 µM (not active); in assay [3], > 50 µM (not active); in assay [4] it was 20.3 µM (active).

With `Cc1c(Cl)cnc(NC(=O)COC(=O)C(NC(=O)c2ccco2)C(C)C)c1Cl` (centres undefined), the IC50 at Bcl-2-like protein 10 is 18.2 µM (active).

As for `CC(C)c1nc2oc3c(NCCO)ncnc3c2c2c1COC(C)(C)C2`, the IC50 on Hexokinase HKDC1 is 3.39 µM (active).

As to `Cc1cc(C)nc(NC(=O)CSc2nn(C)c(=S)s2)n1`, at Estrogen receptor, the IC50 was 8.77 µM (active).

For `Cc1ccc2[nH]c(SCC(=O)Nc3ccc(O)c(C(=O)O)c3)nc2c1`, in assay [5], the 50% inhibitory concentration (IC50) is > 100 µM (not active).

`COC(=O)c1cc2ccsc2n1CC(=O)Nc1ccc(N(C)C)cc1`: the IC50 at Estrogen receptor is 47.3 µM (not active). Besides, the figures for the EC50 in assay [6] and in assay [7] were 4.34 µM (active) and > 30 µM (not active), respectively.

Consider `CC1=C(C(=O)O)N2C(=O)C(NC(=O)c3nn(C)c(C)c3Cl)C2SC1` (centres undefined), for which the concentration for half-maximal inhibition (IC50) in assay [8] is 9.8 µM (active); in assay [9] it was > 50 µM (inactive).

For the compound `COc1ccccc1Oc1ccc(S(=O)(=O)Nc2cccnc2)cc1`, the IC50 in [5] is > 100 µM (not active); in assay [10] it was > 100 µM (inactive).

For the compound `Cc1snc(SCC(=O)c2ccc([N+](=O)[O-])cc2)c1C#N`, the IC50 in assay [2] was 33.9 µM (active).

With `N#CC(C#N)=NNc1ccc(S(N)(=O)=O)cc1`, the IC50 was 16.9 µM (active) in assay [8], > 50 µM (inactive) in assay [9] and 4.71 µM (active) in assay [11].

As for `CCCN(CCC)c1nc2c(C)cccn2c(=O)c1/C=C1/SC(=S)N(Cc2ccco2)C1=O`, the EC50 is 0.352 µM (active) in [6], > 30 µM (not active) in [7] and 2.97 µM (active) in [12].

As to `CC(=O)Nc1ccc(SC[C@H](CC(C)C)N2CCN(CCc3ccccc3)CCC2=O)cc1`, the EC50 in assay [12] was 9 µM (active).

As for `Cc1cc(Cl)c(S(=O)(=O)Nc2ccc3c(c2)OCO3)cc1OCC(N)=O`, the IC50 against Estrogen receptor and against Estrogen receptor beta was > 50 µM (not active) in each case.

For `Cc1nc2c(c(=O)c3ccccc3n2C)c(=O)n1-c1ccccc1`, the IC50 on Hexokinase HKDC1 was 11.8 µM (active).

As for `CSc1nnc(NC(=O)CSc2nc(C)cc(C)n2)[nH]1`, the IC50 in [10] is > 100 µM (inactive).

As for `C=CCN1C(=O)/C(=C2/C(=O)N(CC(=O)O)c3ccccc32)S/C1=N/c1nccs1`, the IC50 is 3.03 µM (active) at Bcl-2-like protein 10 and 2.78 µM (active) in assay [11].

Source of the values: ChEMBL document CHEMBL1201862, “PubChem BioAssay data set” (2004).
